# Reference: patent US11053204B2, “Pyrimidinyloxy benzene derivatives as herbicides” (FMC Corporation, priority 2015, dated 2021)
# Experiments:
# Format in all cases: in vivo
# [1] = system: waterhemp (common waterhemp, Amaranthus rudis); assay: Test C preemergence, plant response rating; details: Preemergence
# Method in brief: (§1)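 Greenhouse plants rated visually against untreated controls 13–15 d after treatment, scale 0 = no effect to 100 = complete control. Postemergence sprays went onto potted plants 2–18 cm tall (1–4 leaves); preemergence sprays onto soil freshly sown in loam–sand or silt loam, chemicals formulated in non-phytotoxic solvent with surfactant.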
# [2] = system: blackgrass (Alopecurus myosuroides); assay: Test C preemergence, plant response rating; details: Preemergence
# Method in brief: as §1
# [3] = system: ragweed (common ragweed, Ambrosia elatior); assay: Test C preemergence, plant response rating; details: Preemergence
# Method in brief: as §1
# [4] = system: velvetleaf (Abutilon theophrasti); assay: Test C preemergence, plant response rating; details: Preemergence
# Method in brief: as §1
# [5] = system: nutsedge, yellow (yellow nutsedge, Cyperus esculentus); assay: Test C preemergence, plant response rating; details: Preemergence
# Method in brief: as §1
# [6] = system: ryegrass, Italian (Italian ryegrass, Lolium multiflorum); assay: Test C preemergence, plant response rating; details: Preemergence
# Method in brief: as §1
# [7] = system: wheat (winter wheat, Triticum aestivum); assay: Test C preemergence, plant response rating; details: Preemergence
# Method in brief: as §1
# [8] = system: crabgrass, large (large crabgrass, Digitaria sanguinalis); assay: Test C preemergence, plant response rating; details: Preemergence
# Method in brief: as §1
# [9] = system: lambsquarters (Chenopodium album); assay: Test C preemergence, plant response rating; details: Preemergence
# Method in brief: as §1
# [10] = system: corn (Zea mays); assay: Test C preemergence, plant response rating; details: Preemergence
# Method in brief: as §1
# [11] = system: morningglory (Ipomoea coccinea); assay: Test C preemergence, plant response rating; details: Preemergence
# Method in brief: as §1
# [12] = system: oilseed rape (Brassica napus); assay: Test C preemergence, plant response rating; details: Preemergence
# Method in brief: as §1
# [13] = system: foxtail, giant (giant foxtail, Setaria faberii); assay: Test C preemergence, plant response rating; details: Preemergence
# Method in brief: as §1
# [14] = system: soybean (Glycine max); assay: Test C preemergence, plant response rating; details: Preemergence
# Method in brief: as §1
# [15] = system: ragweed (common ragweed, Ambrosia elatior); assay: Test A preemergence, visual injury rating; details: 0 to 100 scale (0 no effect, 100 complete control); for Plant response rating, Ragweed: 125 g ai/ha; for Ragweed plant response rating: 500 g ai/ha
# Method in brief: (§2)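 Visual 0–100 rating (100 = complete control) taken about 10 d post-treatment relative to untreated checks. Preemergence: directed soil spray on sown loam/sand pots. Postemergence: seedlings 2–10 cm, 1–2 leaf. Non-phytotoxic solvent formulation with surfactant.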
# [16] = system: Italian ryegrass (Lolium multiflorum); assay: Test A preemergence, visual injury rating; details: 0 to 100 scale (0 no effect, 100 complete control); for Plant response rating, Ryegrass, Italian: 125 g ai/ha; for Ryegrass, Italian plant response rating: 500 g ai/ha
# Method in brief: as §2
# [17] = system: giant foxtail (Setaria faberii); assay: Test A preemergence, visual injury rating; details: 0 to 100 scale (0 no effect, 100 complete control); for Plant response rating, Foxtail, Giant: 125 g ai/ha; for Foxtail, Giant plant response rating: 500 g ai/ha
# Method in brief: as §2
# [18] = system: pigweed (Amaranthus retroflexus); assay: Test A preemergence, visual injury rating; details: 0 to 100 scale (0 no effect, 100 complete control); for Plant response rating, Pigweed: 125 g ai/ha; for Pigweed plant response rating: 500 g ai/ha
# Method in brief: as §2
structure (smiles),measurement,setting,value
CCCCC(=O)c1c(Oc2ncc(Cl)cn2)cccc1C(F)(F)F [Compound 130],"Plant response rating, Waterhemp","[1]; 125 g ai/ha, scale of 0 to 100",100
same,"Plant response rating, Waterhemp","[1]; 31 g ai/ha, scale 0 to 100",100
same,"Plant response rating, Waterhemp","[1]; 62 g ai/ha, scale 0 to 100",100
same,"Plant response rating, Blackgrass","[2]; 125 g ai/ha, scale of 0 to 100",85
same,"Plant response rating, Blackgrass","[2]; 16 g ai/ha, scale 0 to 100",30
same,"Plant response rating, Blackgrass","[2]; 31 g ai/ha, scale 0 to 100",30
same,"Plant response rating, Blackgrass","[2]; 62 g ai/ha, scale 0 to 100",60
same,"Plant response rating, Ragweed","[3]; 125 g ai/ha, scale of 0 to 100",10
same,"Plant response rating, Ragweed","[3]; 31 g ai/ha, scale 0 to 100",0
same,"Plant response rating, Ragweed","[3]; 62 g ai/ha, scale 0 to 100",5
same,"Plant response rating, Velvetleaf","[4]; 125 g ai/ha, scale of 0 to 100",85
same,"Plant response rating, Velvetleaf","[4]; 31 g ai/ha, scale 0 to 100",10
same,"Plant response rating, Velvetleaf","[4]; 62 g ai/ha, scale 0 to 100",75
same,"Plant response rating, Nutsedge, Yellow","[5]; 125 g ai/ha, scale of 0 to 100",0
same,"Plant response rating, Nutsedge, Yellow","[5]; 31 g ai/ha, scale 0 to 100",0
same,"Plant response rating, Nutsedge, Yellow","[5]; 62 g ai/ha, scale 0 to 100",0
same,"Plant response rating, Ryegrass, Italian","[6]; 125 g ai/ha, scale of 0 to 100",70
same,"Plant response rating, Ryegrass, Italian","[6]; 31 g ai/ha, scale 0 to 100",35
same,"Plant response rating, Ryegrass, Italian","[6]; 62 g ai/ha, scale 0 to 100",60
same,"Plant response rating, Wheat","[7]; 125 g ai/ha, scale of 0 to 100",0
same,"Plant response rating, Wheat","[7]; 31 g ai/ha, scale 0 to 100",0
same,"Plant response rating, Wheat","[7]; 62 g ai/ha, scale 0 to 100",5
same,"Plant response rating, Crabgrass, Large","[8]; 125 g ai/ha, scale of 0 to 100",100
same,"Plant response rating, Crabgrass, Large","[8]; 16 g ai/ha, scale 0 to 100",98
same,"Plant response rating, Crabgrass, Large","[8]; 31 g ai/ha, scale 0 to 100",100
same,"Plant response rating, Crabgrass, Large","[8]; 62 g ai/ha, scale 0 to 100",100
same,"Plant response rating, Lambsquarters","[9]; 125 g ai/ha, scale of 0 to 100",95
same,"Plant response rating, Lambsquarters","[9]; 31 g ai/ha, scale 0 to 100",30
same,"Plant response rating, Lambsquarters","[9]; 62 g ai/ha, scale 0 to 100",35
same,"Plant response rating, Corn","[10]; 125 g ai/ha, scale of 0 to 100",25
same,"Plant response rating, Corn","[10]; 16 g ai/ha, scale 0 to 100",5
same,"Plant response rating, Corn","[10]; 31 g ai/ha, scale 0 to 100",0
same,"Plant response rating, Corn","[10]; 62 g ai/ha, scale 0 to 100",5
same,"Plant response rating, Morningglory","[11]; 125 g ai/ha, scale of 0 to 100",10
same,"Plant response rating, Morningglory","[11]; 31 g ai/ha, scale 0 to 100",5
same,"Plant response rating, Morningglory","[11]; 62 g ai/ha, scale 0 to 100",20
same,"Plant response rating, Oilseed Rape","[12]; 125 g ai/ha, scale of 0 to 100",95
same,"Plant response rating, Oilseed Rape","[12]; 31 g ai/ha, scale 0 to 100",10
same,"Plant response rating, Oilseed Rape","[12]; 62 g ai/ha, scale 0 to 100",40
same,"Plant response rating, Foxtail, Giant","[13]; 125 g ai/ha, scale of 0 to 100",100
same,"Plant response rating, Foxtail, Giant","[13]; 31 g ai/ha, scale 0 to 100",70
same,"Plant response rating, Foxtail, Giant","[13]; 62 g ai/ha, scale 0 to 100",98
same,"Plant response rating, Soybean","[14]; 125 g ai/ha, scale of 0 to 100",30
same,"Plant response rating, Soybean","[14]; 31 g ai/ha, scale 0 to 100",0
same,"Plant response rating, Soybean","[14]; 62 g ai/ha, scale 0 to 100",10
same,"Plant response rating, Ragweed",[15],20
same,Ragweed plant response rating,[15],90
same,"Plant response rating, Ryegrass, Italian",[16],80
same,"Ryegrass, Italian plant response rating",[16],100
same,"Plant response rating, Foxtail, Giant",[17],100
same,"Foxtail, Giant plant response rating",[17],100
same,"Plant response rating, Pigweed",[18],100
same,Pigweed plant response rating,[18],100
CCCC(=O)c1c(Oc2ncc(Cl)cn2)cccc1C(F)(F)F [Compound 136],"Plant response rating, Waterhemp","[1]; 125 g ai/ha, scale of 0 to 100",100
same,"Plant response rating, Waterhemp","[1]; 31 g ai/ha, scale 0 to 100",100
same,"Plant response rating, Waterhemp","[1]; 62 g ai/ha, scale 0 to 100",100
same,"Plant response rating, Blackgrass","[2]; 125 g ai/ha, scale of 0 to 100",95
same,"Plant response rating, Blackgrass","[2]; 16 g ai/ha, scale 0 to 100",0
same,"Plant response rating, Blackgrass","[2]; 31 g ai/ha, scale 0 to 100",35
same,"Plant response rating, Blackgrass","[2]; 62 g ai/ha, scale 0 to 100",60
same,"Plant response rating, Ragweed","[3]; 125 g ai/ha, scale of 0 to 100",40
same,"Plant response rating, Ragweed","[3]; 31 g ai/ha, scale 0 to 100",20
same,"Plant response rating, Ragweed","[3]; 62 g ai/ha, scale 0 to 100",0
same,"Plant response rating, Velvetleaf","[4]; 125 g ai/ha, scale of 0 to 100",65
same,"Plant response rating, Velvetleaf","[4]; 31 g ai/ha, scale 0 to 100",5
same,"Plant response rating, Velvetleaf","[4]; 62 g ai/ha, scale 0 to 100",15
same,"Plant response rating, Nutsedge, Yellow","[5]; 125 g ai/ha, scale of 0 to 100",5
same,"Plant response rating, Nutsedge, Yellow","[5]; 31 g ai/ha, scale 0 to 100",0
same,"Plant response rating, Nutsedge, Yellow","[5]; 62 g ai/ha, scale 0 to 100",0
same,"Plant response rating, Ryegrass, Italian","[6]; 125 g ai/ha, scale of 0 to 100",65
same,"Plant response rating, Ryegrass, Italian","[6]; 31 g ai/ha, scale 0 to 100",30
same,"Plant response rating, Ryegrass, Italian","[6]; 62 g ai/ha, scale 0 to 100",35
same,"Plant response rating, Wheat","[7]; 125 g ai/ha, scale of 0 to 100",10
same,"Plant response rating, Wheat","[7]; 31 g ai/ha, scale 0 to 100",0
same,"Plant response rating, Wheat","[7]; 62 g ai/ha, scale 0 to 100",0
same,"Plant response rating, Crabgrass, Large","[8]; 125 g ai/ha, scale of 0 to 100",100
same,"Plant response rating, Crabgrass, Large","[8]; 16 g ai/ha, scale 0 to 100",50
same,"Plant response rating, Crabgrass, Large","[8]; 31 g ai/ha, scale 0 to 100",85
same,"Plant response rating, Crabgrass, Large","[8]; 62 g ai/ha, scale 0 to 100",100
same,"Plant response rating, Lambsquarters","[9]; 125 g ai/ha, scale of 0 to 100",80
same,"Plant response rating, Lambsquarters","[9]; 31 g ai/ha, scale 0 to 100",30
same,"Plant response rating, Lambsquarters","[9]; 62 g ai/ha, scale 0 to 100",25
same,"Plant response rating, Corn","[10]; 125 g ai/ha, scale of 0 to 100",5
same,"Plant response rating, Corn","[10]; 16 g ai/ha, scale 0 to 100",0
same,"Plant response rating, Corn","[10]; 31 g ai/ha, scale 0 to 100",0
same,"Plant response rating, Corn","[10]; 62 g ai/ha, scale 0 to 100",5
same,"Plant response rating, Morningglory","[11]; 125 g ai/ha, scale of 0 to 100",30
same,"Plant response rating, Morningglory","[11]; 31 g ai/ha, scale 0 to 100",0
same,"Plant response rating, Morningglory","[11]; 62 g ai/ha, scale 0 to 100",5
same,"Plant response rating, Oilseed Rape","[12]; 125 g ai/ha, scale of 0 to 100",98
same,"Plant response rating, Oilseed Rape","[12]; 31 g ai/ha, scale 0 to 100",5
same,"Plant response rating, Oilseed Rape","[12]; 62 g ai/ha, scale 0 to 100",70
same,"Plant response rating, Foxtail, Giant","[13]; 125 g ai/ha, scale of 0 to 100",100
same,"Plant response rating, Foxtail, Giant","[13]; 31 g ai/ha, scale 0 to 100",65
same,"Plant response rating, Foxtail, Giant","[13]; 62 g ai/ha, scale 0 to 100",70
same,"Plant response rating, Soybean","[14]; 125 g ai/ha, scale of 0 to 100",40
same,"Plant response rating, Soybean","[14]; 31 g ai/ha, scale 0 to 100",0
same,"Plant response rating, Soybean","[14]; 62 g ai/ha, scale 0 to 100",15
same,"Plant response rating, Ragweed",[15],80
same,Ragweed plant response rating,[15],80
same,"Plant response rating, Ryegrass, Italian",[16],20
same,"Ryegrass, Italian plant response rating",[16],100
same,"Plant response rating, Foxtail, Giant",[17],100
same,"Foxtail, Giant plant response rating",[17],100
same,"Plant response rating, Pigweed",[18],100
same,Pigweed plant response rating,[18],100
